According to patent US12240862B2, “Inhibitors of peptidylarginine deiminases” (Gilead Sciences, Inc., priority 2020, dated 2025):

biological target: T1, human PAD4 (Homo sapiens, UniProt Q9UM07); assay: In vitro PAD4 BAEE biochemical assay; settings: human PAD4, BAEE substrate; 5 nM PAD4, 2 mM calcium chloride, 3 mM BAEE; geometric mean of multiple experiments
T1 construct: human PAD4 (NM_012387), A2P663, was PCR amplified; His-SUMO (N, cleaved yes); made in house; host or cells: E. coli BL21(DE3)
T1 sequence (Q9UM07 2-663): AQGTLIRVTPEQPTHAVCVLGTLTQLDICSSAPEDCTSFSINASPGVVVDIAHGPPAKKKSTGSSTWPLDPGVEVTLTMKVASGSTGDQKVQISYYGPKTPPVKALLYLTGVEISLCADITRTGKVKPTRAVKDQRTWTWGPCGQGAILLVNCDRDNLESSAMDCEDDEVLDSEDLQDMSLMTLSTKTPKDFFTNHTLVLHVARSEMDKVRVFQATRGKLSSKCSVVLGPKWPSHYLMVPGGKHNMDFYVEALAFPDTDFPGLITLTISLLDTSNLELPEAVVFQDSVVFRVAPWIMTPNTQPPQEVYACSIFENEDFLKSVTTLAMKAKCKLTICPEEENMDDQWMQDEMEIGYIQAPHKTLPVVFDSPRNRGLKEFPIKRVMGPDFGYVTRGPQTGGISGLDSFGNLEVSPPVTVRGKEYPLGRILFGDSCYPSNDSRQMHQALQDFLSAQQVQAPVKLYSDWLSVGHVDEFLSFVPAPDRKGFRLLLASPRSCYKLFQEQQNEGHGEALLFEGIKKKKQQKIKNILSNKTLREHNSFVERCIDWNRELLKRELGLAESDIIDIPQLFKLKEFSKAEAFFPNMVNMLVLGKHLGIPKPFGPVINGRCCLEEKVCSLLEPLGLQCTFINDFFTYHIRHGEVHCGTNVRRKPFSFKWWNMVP
Procedure: The PCR product was ligated into linearized pET-SUMO vector (Invitrogen, Carlsbad, CA), which is part of the Champion™ pET SUMO Protein Expression System. After sequence verification for the correct orientation, the pET-SUMO-hPAD4 expression plasmid was transformed into BL21(DE3) cells.
E. Coli BL21(DE3) cells were inoculated in LB medium with kanamycin at 37° C. until A600 nm reached about 0.5. Protein expression was induced by addition of 0.5 mM IPTG (final) and continued overnight at 16° C. at 220 rpm.
Cells were harvested by centrifugation at 5000 rpm for 10 minutes at 4° C. The pellet was resuspended in 300 ml lysis buffer (20 mM Tris-HCl, pH 8.0, 1 mM EDTA, 500 mM NaCl, 1 mM (tris(2-carboxyethyl)phosphine) (TCEP), 10% glycerol, and 1% Triton X100 and EDTA free protease inhibitor) and lysed by 3× passage through a microfluidizer (Microfluidics, Newton, MA) at 18,000 psi. The cell lysate was clarified by centrifugation at 30,000 rpm for 60 minutes at 4° C. […] Bound protein was eluted with a 0-100% linear gradient of 100 mL Ni-B buffer (Ni A buffer+0.5 M Imidazole).
The protein was then reloaded onto a Ni—HP column for a reverse purification step and recovered in flow through fraction. The protein with His-Sumo tag removed was then polished using a 16/60 Superdex-200 gel filtration column with gel filtration buffer (20 mM Tris pH 8.0, NaCl 400 mM and 1 mM TCEP). The fractions containing the protein were pulled and frozen at −80° C.
The enzymatic activity of human PAD4 was monitored in a biochemical assay in the presence or absence of compounds using the small peptidyl arginine mimic BAEE (Na-Benzoyl-L-arginine ethyl ester hydrochloride) as substrate. PAD4 activity led to deamination of BAEE and release of ammonia. Levels of ammonia were monitored by using an amine coupling reaction and were indicative of PAD4 enzymatic activity.
One hundred nanoliters of test compounds dissolved in DMSO at various concentrations were dispensed into a 384-well black OptiPlate using a Labcyte Echo instrument. Ten microliters of a solution of recombinant PAD4 and calcium chloride diluted in PAD4 assay buffer (50 mM MOPS [3-(N-morpholino) propanesulfonic acid], pH 7.6; 50 mM sodium chloride; 0.05% Tween-20; 2 mM dithiothreitol) was added to the compound-containing plate and was incubated for 30 minutes at 25° C. Ten microliters of a solution of BAEE (Sigma-Aldrich #B4500) diluted in PAD4 assay buffer was then added to start the reaction. Final concentrations were 5 nM PAD4, 2 mM calcium chloride, and 3 mM BAEE. The reaction mixture was incubated at 25° C. for 2 hours and was stopped with the addition of 10 microliters of a solution of 75 mM EDTA (Ethylenediaminetetraacetic acid) in PAD4 assay buffer. Thirty microliters of detection solution (5 mM o-phthalaldehyde, 50 mM MOPS [3-(N-morpholino) propanesulfonic acid], pH 7.6; 50 mM sodium chloride; 0.05% Tween-20; 5 mM dithiothreitol) was then added and the reaction was incubated for 1 hour at 25° C.

Row | Compound | IC50 [nM]
1 | 3-[(1~{R})-1-[2-[7- [(1~{R},2~{R},4~{S})-2- amino-7- azabicyclo[2.2.1]heptane-7- carbonyl]-3-cyclopropyl-5- methoxyimidazo [1,2-a]pyridin-2-yl]-1- (cyclopropylmethyl)pyrrolo [2,3-b]pyridin-6-yl]ethyl]-1- [(6-methoxypyridin-2- yl)methyl]-1-methylurea [Example 219] | 124
2 | CCC1C(N)C2CCC1N2C(=O)c1cc(OC)n2c(C)c(-c3cc4ccc(N(C(F)F)S(C)(=O)=O)nc4n3CC3CC3)nc2c1 (single isomer, unassigned) [Example 346] | 2130
3 | CCC1C(N)C2CCC1N2C(=O)c1cc(OC)n2c(C)c(-c3cc4ccc(N(C(F)F)S(C)(=O)=O)nc4n3CC3CC3)nc2c1 (single isomer, unassigned) [Example 347] | 10100
4 | COc1cc(C(=O)N2C[C@H]3CC[C@@H]2[C@H](N)C3)cc2nc(-c3cc4ccc(N(C(F)F)S(C)(=O)=O)nc4n3CC3CC3)c(C)n12 (single isomer, unassigned) [Example 369, ~{N}-[2-[7-[(1~{S},4~{R}, 6~{R})-6-amino-2-azabicyclo[2.2.2]octane-2-carbonyl]-5-methoxy-3-methylimidazo[1,2-a]pyridin-2-yl]-1-(cyclopropylmethyl)pyrrolo [2,3-b]pyridin-6-yl]-~{N}-(difluoromethyl) methanesulfonamide] | 13600
5 | COc1cc(C(=O)N2CC[C@@H]3CCNC[C@@H]32)cc2nc(-c3cc4ccc(N(C(F)F)S(C)(=O)=O)nc4n3CC3CC3)c(C)n12 (single isomer, unassigned) [Example 417] | 7180
6 | COc1cc(C(=O)N2[C@H]3CC[C@@H]2[C@H](N)C3)cc2nc(-c3cc4ccc([C@@H](C)NC(=O)c5cn(C)nn5)nc4n3CC3CC3)c(C)n12 [Example 1, ~{N}-[(1~{R})-1-[2-[7-[(1~{R},2~{R},4~{S})-2-amino-7-azabicyclo[2.2.1]heptane-7-carbonyl]-5-methoxy-3-methylimidazo [1,2-a]pyridin-2-yl]-1-(cyclopropylmethyl)pyrrolo [2,3-b]pyridin-6-yl]ethyl]-1-methyltriazole-4-carboxamide] | 85.7
7 | COc1cc(C(=O)N2C[C@@H]3CC[C@H]2CN3)cc2nc(-c3cc4ccc([C@@H](C)NC(=O)C56CC(F)(C5)C6)nc4n3CC3CC3)c(C)n12 [Example 3, ~{N}-[(1~{R})-1-[1-(cyclopropylmethyl)-2-[7-[(1~{S},4~{S})-2,5-diazabicyclo[2.2.2]octane-2-carbonyl]-5-methoxy-3-methylimidazo[1,2-a]pyridin-2-yl]pyrrolo [2,3-b]pyridin-6-yl]ethyl]-3-fluorobicyclo [1.1.1] pentane-1-carboxamide] | 11000
8 | COc1cc(C(=O)N2CCC3(CCCCN3)C2)cc2nc(-c3cc4ccc([C@@H](C)NC(=O)C56CC(F)(C5)C6)nc4n3CC3CC3)c(C)n12 (stereo partly shown) [Example 4, ~{N}-[(1~{R})-1-[1-(cyclopropylmethyl)-2-[7-(2,6-diazaspiro [4.5]decane-2-carbonyl)-5-methoxy-3-methylimidazo[1,2-a]pyridin-2-yl]pyrrolo[2,3-b]pyridin-6-yl]ethyl]-3-fluorobicyclo[1.1.1] pentane-1-carboxamide] | 23400
9 | COc1cc(C(=O)N2CCC3(CCCNC3)C2)cc2nc(-c3cc4ccc([C@@H](C)NC(=O)C56CC(F)(C5)C6)nc4n3CC3CC3)c(C)n12 (stereo partly shown) [Example 5, ~{N}-[(1~{R})-1-[1-(cyclopropylmethyl)-2-[7-(2,9-diazaspiro[4.5]decane-2-carbonyl)-5-methoxy-3-methylimidazo[1,2-a]pyridin-2-yl]pyrrolo [2,3-b]pyridin-6-yl]ethyl]-3-fluorobicyclo[1.1.1] pentane-1-carboxamide] | 19000
10 | COc1cc(C(=O)N2[C@H]3CC[C@@H]2[C@H](N)C3)cc2nc(-c3cc4ccc([C@@H](C)NC(=O)C(C)C(F)(F)F)nc4n3CC3CC3)c(C)n12 (stereo partly shown) [Example 7, ~{N}-[(1~{R})-1-[2-[7-[(1~{R},2~{R},4~{S})-2-amino-7-azabicyclo [2.2.1]heptane-7-carbonyl]-5-methoxy-3-methylimidazo [1,2-a]pyridin-2-yl]-1-(cyclopropylmethyl)pyrrolo[2,3-b]pyridin-6-yl]ethyl]-3,3,3-trifluoro-2-methylpropanamide] | 127
11 | COc1cc(C(=O)N2[C@H]3CC[C@@H]2[C@H](N)C3)cc2nc(-c3cc4ccc([C@@H](C)NC(=O)[C@H]5[C@@H]6CC(F)(F)C[C@@H]65)nc4n3CC3CC3)c(C)n12 [Example 8, (1~{R},5~{S})-~{N}-[(1~{R})-1-[2-[7-[(1~{R}, 2~{R},4~{S})-2-amino-7-azabicyclo[2.2.1]heptane-7-carbonyl]-5-methoxy-3-methylimidazo [1,2-a]pyridin-2-yl]-1-(cyclopropylmethyl)pyrrolo[2,3-b]pyridin-6-yl]ethyl]-3,3-difluorobicyclo[3.1.0] hexane-6-carboxamide] | 144
12 | COc1cc(C(=O)N2CCC[C@@H](N)C2)cc2nc(-c3cc4ccc([C@@H](C)NC(=O)[C@H]5[C@@H]6CC(F)(F)C[C@@H]65)nc4n3CC3CC3)c(C)n12 [Example 9, (1~{R},5~{S})-~{N}-[(1~{R})-1-[2-[7-[(3~{R})-3-aminopiperidine-1-carbonyl]-5-methoxy-3-methylimidazo[1,2-a]pyridin-2-yl]-1-(cyclopropylmethyl)pyrrolo[2,3-b]pyridin-6-yl]ethyl]-3,3-difluorobicyclo[3.1.0] hexane-6-carboxamide] | 28
13 | COc1cc(C(=O)N2[C@H]3CC[C@@H]2[C@H](N)C3)cc2nc(-c3cc4ccc([C@@H](C)NC(=O)c5ccccc5C(F)(F)F)nc4n3CC3CC3)c(C)n12 [Example 10, ~{N}-[(1~{R})-1-[2-[7-[(1~{R},2~{R},4~{S})-2-amino-7-azabicyclo [2.2.1]heptane-7-carbonyl]-5-methoxy-3-methylimidazo [1,2-a]pyridin-2-yl]-1-(cyclopropylmethyl)pyrrolo[2,3-b]pyridin-6-yl]ethyl]-2-(trifluoromethyl) benzamide] | 259
14 | COc1cc(C(=O)N2[C@H]3CC[C@@H]2[C@H](N)C3)cc2nc(-c3cc4ccc([C@@H](C)NC(=O)c5ccccc5C(F)F)nc4n3CC3CC3)c(C)n12 [Example 11, ~{N}-[(1~{R})-1-[2-[7-[(1~{R},2~{R},4~{S})-2-amino-7-azabicyclo [2.2.1]heptane-7-carbonyl]-5-methoxy-3-methylimidazo [1,2-a]pyridin-2-yl]-1-(cyclopropylmethyl)pyrrolo[2,3-b]pyridin-6-yl]ethyl]-2-(difluoromethyl) benzamide] | 253
15 | CCC1CC[C@@H]2CCN(C(=O)c3cc(OC)n4c(C)c(-c5cc6ccc([C@@H](C)NC(=O)C78CC(F)(C7)C8)nc6n5CC5CC5)nc4c3)C[C@@H]2N1 (stereo partly shown) [Example 12, ~{N}-[(1~{R})-1-[2-[7-[(4~{a}~{R}, 8~{a}~{R})-2-ethyl-2,3,4,4~{a}, 5,6,8,8~{a}-octahydro-1~{H}-1,7-naphthyridine-7-carbonyl]-5-methoxy-3-methylimidazo[1,2-a]pyridin-2-yl]-1-(cyclopropylmethyl)pyrrolo[2,3-b]pyridin-6-yl]ethyl]-3-fluorobicyclo[1.1.1] pentane-1-carboxamide] | 29100
16 | COc1cc(C(=O)N2[C@H]3CC[C@@H]2[C@@H]2NCCO[C@@H]2C3)cc2nc(-c3cc4ccc([C@@H](C)NC(=O)C56CC(F)(C5)C6)nc4n3CC3CC3)c(C)n12 [Example 13, ~{N}-[(1~{R})-1-[1-(cyclopropylmethyl)-2-[5-methoxy-3-methyl-7-[(1~{R},2~{S},7~{R}, 9~{S})-6-oxa-3,12-diazatricyclo [7.2.1.0^{2,7}]dodecane-12-carbonyl]imidazo[1,2-a]pyridin-2-yl]pyrrolo[2,3-b]pyridin-6-yl]ethyl]-3-fluorobicyclo[1.1.1] pentane-1-carboxamide] | 1780
